The supplement of paper PMC11061612

Experiments:
ES1 (Ewing's Sarcoma) [1] = assay: combination Emax (second highest fraction inhibited in the dose matrix, 72 h); higher = more inhibition; extreme values may be limits of the assay
How it was run: (§1)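 Bliss excess equals the observed combination effect minus the expected value EA + EB − EA·EB, where EA and EB are the effects of each agent alone. Combination Emax is the second-highest inhibition within the matrix. Inhibition was scaled from CellTiter-Glo 2.0 luminescence, with 0 set by vehicle wells and 1 by blank wells, after 72 hours of two-drug dosing of cells plated in 1536-well plates.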

ES8 (Ewing's Sarcoma) [2] = assay: as above
How it was run: as §1

[3] = test system: DND-41 (T-Lymphoblastic Leukemia); assay: as above
How it was run: as §1

WIL2-NS (Non-Cancerous) [4] = assay: as above
How it was run: as §1

[5] = test system: L-540 (Hodgkin's Lymphoma); assay: as above
How it was run: as §1

[6] = test system: BL-41 (Burkitt's Lymphoma); assay: as above
How it was run: as §1

[7] = test system: SR (Other Blood Carcinomas); assay: as above
How it was run: as §1

[8] = test system: K-562 (Chronic Myelogenous Leukemia); assay: as above
How it was run: as §1

[9] = test system: SW837 (Colorectal Carcinoma); assay: as above
How it was run: as §1

NCI-H2818 (Mesothelioma) [10] = assay: as above
How it was run: as §1

[11] = test system: CAMA-1 (Breast Carcinoma); assay: as above
How it was run: as §1

[12] = test system: MKN28 (Gastric Carcinoma); assay: as above
How it was run: as §1

WM-115 (Melanoma) [13] = assay: as above
How it was run: as §1

[14] = test system: NCI-H1792 (Lung Adenocarcinoma); assay: as above
How it was run: as §1

[15] = test system: SW1417 (Colorectal Carcinoma); assay: as above
How it was run: as §1

[16] = test system: GR-ST (B-Lymphoblastic Leukemia); assay: as above
How it was run: as §1

[17] = test system: BFTC-905 (Bladder Carcinoma); assay: as above
How it was run: as §1

ES1 (Ewing's Sarcoma) [18] = assay: Bliss excess, mean over the matrix (fraction); higher = more synergy
How it was run: as §1

ES8 (Ewing's Sarcoma) [19] = assay: as above
How it was run: as §1

[20] = test system: DND-41 (T-Lymphoblastic Leukemia); assay: as above
How it was run: as §1

WIL2-NS (Non-Cancerous) [21] = assay: as above
How it was run: as §1

[22] = test system: L-540 (Hodgkin's Lymphoma); assay: as above
How it was run: as §1

[23] = test system: BL-41 (Burkitt's Lymphoma); assay: as above
How it was run: as §1

[24] = test system: SR (Other Blood Carcinomas); assay: as above
How it was run: as §1

[25] = test system: K-562 (Chronic Myelogenous Leukemia); assay: as above
How it was run: as §1

[26] = test system: SW837 (Colorectal Carcinoma); assay: as above
How it was run: as §1

NCI-H2818 (Mesothelioma) [27] = assay: as above
How it was run: as §1

[28] = test system: CAMA-1 (Breast Carcinoma); assay: as above
How it was run: as §1

[29] = test system: MKN28 (Gastric Carcinoma); assay: as above
How it was run: as §1

WM-115 (Melanoma) [30] = assay: as above
How it was run: as §1

[31] = test system: NCI-H1792 (Lung Adenocarcinoma); assay: as above
How it was run: as §1

[32] = test system: SW1417 (Colorectal Carcinoma); assay: as above
How it was run: as §1

[33] = test system: GR-ST (B-Lymphoblastic Leukemia); assay: as above
How it was run: as §1

[34] = test system: BFTC-905 (Bladder Carcinoma); assay: as above
How it was run: as §1

SMILES	combination Emax (ES1 (Ewing's Sarcoma) [1])	combination Emax (ES8 (Ewing's Sarcoma) [2])	combination Emax [3]	combination Emax (WIL2-NS (Non-Cancerous) [4])	combination Emax [5]	combination Emax [6]	combination Emax [7]	combination Emax [8]	combination Emax [9]	combination Emax (NCI-H2818 (Mesothelioma) [10])	combination Emax [11]	combination Emax [12]	combination Emax (WM-115 (Melanoma) [13])	combination Emax [14]	combination Emax [15]	combination Emax [16]	combination Emax [17]	Bliss excess (ES1 (Ewing's Sarcoma) [18])	Bliss excess (ES8 (Ewing's Sarcoma) [19])	Bliss excess [20]	Bliss excess (WIL2-NS (Non-Cancerous) [21])	Bliss excess [22]	Bliss excess [23]	Bliss excess [24]	Bliss excess [25]	Bliss excess [26]	Bliss excess (NCI-H2818 (Mesothelioma) [27])	Bliss excess [28]	Bliss excess [29]	Bliss excess (WM-115 (Melanoma) [30])	Bliss excess [31]	Bliss excess [32]	Bliss excess [33]	Bliss excess [34]
C[C@@H](Oc1cc(-c2cnn(C3CCNCC3)c2)cnc1N)c1c(Cl)ccc(F)c1Cl [Crizotinib] + CC1=C(C(=CC=C1)Cl)NC(=O)C2=CN=C(S2)NC3=CC(=NC(=N3)C)N4CCN(CC4)CCO [Dasatinib] (first compound max 10 µM, 7x7, partner max 2 µM)	0.843	0.946	0.951	0.635	0.629	0.978	1	0.95	0.628	0.589	0.184	0.673	0.49	0.928	0.535	0.955	0.97	-0.0149	0.0154	-0.0124	0.105	-0.0447	0.0338	-0.0251	0.0162	0.0025	0.0145	-0.0273	-0.0096	-0.0409	0.0376	0.0352	0.0129	0.0479
C[C@@H]1COCCN1c1cc(C2([S@](C)(=N)=O)CC2)nc(-c2ccnc3[nH]ccc23)n1 [AZD6738] + C1CC(C1)(C(=O)[O-])C(=O)[O-].N.N.[Pt+2] [Carboplatin] (first compound max 10 µM, 7x7, partner max 10 µM)	0.917	0.925	0.919	0.922	0.894	0.974	0.879	0.847	0.402	0.378	0.381	0.327	0.425	0.733	0.375	0.747	0.723	-0.0078	0.0982	-0.0146	-0.0241	-0.0267	-0.0271	-0.0383	-0.031	-0.0837	-0.0286	-0.0454	-0.0242	-0.0607	-0.0303	-0.0074	-0.0241	0.0337
C[C@@H](Nc1cc(F)cc(F)c1)c1cc(C(=O)N(C)C)cc2c(=O)cc(N3CCOCC3)oc12 [AZD8186] + C1CN(CCC1(C(=O)N[C@@H](CCO)C2=CC=C(C=C2)Cl)N)C3=NC=NC4=C3C=CN4 [AZD5363] (first compound max 10 µM, 7x7, partner max 10 µM)	0.55	0.625	0.193	0.614	0.173	0.276	0.297	0.253	0.237	0.286	0.712	0.107	0.645	0.344	0.372	0.556	0.423	0.0388	0.0216	0.0141	0.0339	-0.024	-0.0264	-0.0412	0.0402	-0.0386	-0.017	0.0234	-0.0504	-0.0842	-0.0066	-0.0038	-0.03	-0.0098
O=C(c1cc(Cc2n[nH]c(=O)c3ccccc23)ccc1F)N1CCN(C(=O)C2CC2)CC1 [Olaparib] + CC1(C)CCC(CN2CCN(c3ccc(C(=O)NS(=O)(=O)c4ccc(NCC5CCOCC5)c([N+](=O)[O-])c4)c(Oc4cnc5[nH]ccc5c4)c3)CC2)=C(c2ccc(Cl)cc2)C1 [Venetoclax] (first compound max 10 µM, 7x7, partner max 1 µM)	0.841	0.964	0.29	0.46	0.558	0.318	0.567	0.172	0.112	0.158	0.211	0.105	0.241	0.109	0.124	0.526	0.193	0.0271	-0.0224	0.0243	0.0261	0.0188	0.0183	0.0961	-0.0133	-0.0548	-0.0238	-0.0106	-0.0514	-0.052	-0.0302	-0.0223	-0.0349	-0.0334
CN(CCO)CC[C@H](CSc1ccccc1)Nc1ccc(S(=O)(=O)NC(=O)c2ccc(N3CCC([C@@H](O)c4ccccc4-c4ccc(Cl)cc4)CC3)cc2)cc1S(=O)(=O)C(F)(F)F [AZD4320] + Nc1ccn([C@@H]2O[C@H](CO)[C@@H](O)C2(F)F)c(=O)n1 [Gemcitabine] (first compound max 1 µM, 7x7, partner max 0.3 µM)	1	1	1	0.987	0.951	1	1	0.353	0.475	0.717	0.651	0.283	0.688	0.823	0.49	0.765	0.9	-0.0239	0.0312	0.0375	0.0107	-0.0365	-0.0094	0.053	0.0054	-0.0331	0.0008	0.063	-0.0338	0.0125	0.0469	-0.0377	-0.0009	0.0207
O=C(c1cc(Cc2n[nH]c(=O)c3ccccc23)ccc1F)N1CCN(C(=O)C2CC2)CC1 [Olaparib] + Cc1c2c(nn1C)CSCc1cc(n(C)n1)CSc1cc(c3ccccc3c1)OCCCc1c(C(=O)O)n(C)c3c-2c(Cl)ccc13 [AZD5991] (first compound max 10 µM, 7x7, partner max 1 µM)	0.98	0.958	0.174	0.299	1	1	0.943	0.0695	0.136	0.169	0.706	0.0875	0.146	0.201	0.0852	0.515	0.178	0.0139	-0.0085	-0.0059	-0.0181	0.0143	0.0012	0.0384	-0.0125	-0.0524	-0.0446	0.0094	-0.0498	-0.0678	-0.041	-0.0315	-0.0352	-0.0279
N#Cc1cnc(Nc2cc(NC[C@H]3CNCCO3)c(C(F)(F)F)cn2)cn1 [SRA737] + O=c1[nH]cc(F)c(=O)[nH]1 [5-Fluorouracil] (first compound max 10 µM, 7x7, partner max 20 µM)	0.982	0.611	0.946	0.957	0.936	1	0.959	0.893	0.497	0.239	0.314	0.381	0.255	0.84	0.238	0.817	0.278	0.0525	0.0404	0.0434	0.0182	-0.0581	0.0042	-0.0128	-0.0202	0.0162	-0.0232	0.0209	0.0222	-0.0753	0.0523	0.0018	-0.0636	0.0197
CN(CCO)CC[C@H](CSc1ccccc1)Nc1ccc(S(=O)(=O)NC(=O)c2ccc(N3CCC([C@@H](O)c4ccccc4-c4ccc(Cl)cc4)CC3)cc2)cc1S(=O)(=O)C(F)(F)F [AZD4320] + CC(=O)O[C@H]1C(=O)[C@@]2(C)[C@H]([C@H](OC(=O)c3ccccc3)[C@]3(O)C[C@H](OC(=O)[C@H](O)[C@@H](NC(=O)c4ccccc4)c4ccccc4)C(C)=C1C3(C)C)[C@]1(OC(C)=O)CO[C@@H]1C[C@@H]2O [Paclitaxel] (first compound max 1 µM, 7x7, partner max 3 µM)	0.984	1	1	0.942	0.974	1	1	0.981	0.878	0.745	0.843	0.738	0.851	0.986	0.864	0.839	0.989	-0.0272	0.0317	0.187	-0.0331	0.0162	-0.0222	0.0061	-0.0181	0.0777	0.0844	0.119	0.0942	0.0811	0.0049	0.0037	-0.0651	0.0384
